Counter-ions that a name gives are not always drawn.
Experiments:
[1] = tested on: Staphulococcus aureus (ATCC 29213); experiment: Minimum inhibitory concentration (MIC) assay, Example 33; format: cell-based, Staphylococcus aureus; conditions: Staphylococcus aureus, ATCC29213, read-out: MIC S. aureus, n = 1
Procedure, shortened: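 Following CLSI guidelines, each bacterial strain was taken from a twice-restreaked agar colony and suspended to 0.5 McFarland density. After a 1:100 dilution it was mixed 1:2 with 2-fold serially diluted compound in CAMHB. The MIC was read after incubation at 35 °C.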

Aspergillus niger = experiment: Extended time kill study, Example 34 (0 to 24 h); format: cell-based
Procedure: (§1) Time kill studies. Strain suspensions were prepared as described above for the MIC test, and strain suspensions and compound solutions were mixed in the same volume. Samples were removed at specified times including 0 min, 30 sec, 1 min and 5 mins, were diluted in the test medium and streaked on agar. Colonies were counted after 24 to 48 hrs of incubation.
(§2) The time kill studies of Example 33 were extended for five compounds (Nex-59, Nex-60, Nex-61, Nex-62, and Nex-88) using the same methods at longer time periods and at higher multiples of MIC. Nex-88 is a code number for DDAIP.HCl from a different supplier.

Candida albicans = experiment: Extended time kill study, Example 34 (0 to 24 h); format: cell-based
Procedure: as §1, §2

Pseudomonas aeruginosa = experiment: Extended time kill study, Example 34 (0 to 24 h); format: cell-based
Procedure: as §1, §2

Staphylococcus aureus = experiment: Extended time kill study, Example 34 (0 to 24 h); format: cell-based
Procedure: as §1, §2

Structure (SMILES): CCCCCCCCCCCCOC(=O)C(C)N(C)C (stereo not shown) [Nex-05, Dodecyl 2-(dimethylamino)propanoate hydrochloride]
- MIC [1]: 3130 µg/mL
- Viable counts in Log10 CFU/mL (Aspergillus niger; 1 × MIC, 1 h): 5.28 Log10 CFU/mL
- Viable counts in Log10 CFU/mL (Aspergillus niger; 1 × MIC, 2 h): 4.78 Log10 CFU/mL
- Viable counts in Log10 CFU/mL (Aspergillus niger; 1 × MIC, 4 h): 4.60 Log10 CFU/mL
- Viable counts in Log10 CFU/mL (Aspergillus niger; 1 × MIC, 6 h): 4.30 Log10 CFU/mL
- Viable counts in Log10 CFU/mL (Aspergillus niger; 1 × MIC, 24 h): 3.30 Log10 CFU/mL
- Viable counts in Log10 CFU/mL (Aspergillus niger; 1 × MIC, 0 h): 5.41 Log10 CFU/mL
- Viable counts in Log10 CFU/mL (Aspergillus niger; 2 × MIC, 1 h): 4.30 Log10 CFU/mL
- Viable counts in Log10 CFU/mL (Aspergillus niger; 2 × MIC, 2 h): 4.70 Log10 CFU/mL
- Viable counts in Log10 CFU/mL (Aspergillus niger; 2 × MIC, 4 h): 3 Log10 CFU/mL
- Viable counts in Log10 CFU/mL (Aspergillus niger; 2 × MIC, 6 h): 4 Log10 CFU/mL
- Viable counts in Log10 CFU/mL (Aspergillus niger; 2 × MIC, 24 h): <2 Log10 CFU/mL
- Viable counts in Log10 CFU/mL (Aspergillus niger; 2 × MIC, 0 h): 5.38 Log10 CFU/mL
- Viable counts in Log10 CFU/mL (Aspergillus niger; 4 × MIC, 1 h): 4.48 Log10 CFU/mL
- Viable counts in Log10 CFU/mL (Aspergillus niger; 4 × MIC, 2 h): 4 Log10 CFU/mL
- Viable counts in Log10 CFU/mL (Aspergillus niger; 4 × MIC, 4 h): 3 Log10 CFU/mL
- Viable counts in Log10 CFU/mL (Aspergillus niger; 4 × MIC, 6 h): 4 Log10 CFU/mL
- Viable counts in Log10 CFU/mL (Aspergillus niger; 4 × MIC, 24 h): <2 Log10 CFU/mL
- Viable counts in Log10 CFU/mL (Aspergillus niger; 4 × MIC, 0 h): 5.50 Log10 CFU/mL
- Viable counts in Log10 CFU/mL (Candida albicans; 1 × MIC, 1 h): 5.62 Log10 CFU/mL
- Viable counts in Log10 CFU/mL (Candida albicans; 1 × MIC, 2 h): 5.60 Log10 CFU/mL
- Viable counts in Log10 CFU/mL (Candida albicans; 1 × MIC, 4 h): 5.60 Log10 CFU/mL
- Viable counts in Log10 CFU/mL (Candida albicans; 1 × MIC, 6 h): 6.02 Log10 CFU/mL
- Viable counts in Log10 CFU/mL (Candida albicans; 1 × MIC, 24 h): >6 Log10 CFU/mL
- Viable counts in Log10 CFU/mL (Candida albicans; 1 × MIC, 0 h): 5.82 Log10 CFU/mL
- Viable counts in Log10 CFU/mL (Candida albicans; 2 × MIC, 1 h): 4.99 Log10 CFU/mL
- Viable counts in Log10 CFU/mL (Candida albicans; 2 × MIC, 2 h): 4.88 Log10 CFU/mL
- Viable counts in Log10 CFU/mL (Candida albicans; 2 × MIC, 4 h): 4.62 Log10 CFU/mL
- Viable counts in Log10 CFU/mL (Candida albicans; 2 × MIC, 6 h): 4.58 Log10 CFU/mL
- Viable counts in Log10 CFU/mL (Candida albicans; 2 × MIC, 24 h): 2.57 Log10 CFU/mL
- Viable counts in Log10 CFU/mL (Candida albicans; 2 × MIC, 0 h): 5.81 Log10 CFU/mL
- Viable counts in Log10 CFU/mL (Candida albicans; 4 × MIC, 1 h): 3.95 Log10 CFU/mL
- Viable counts in Log10 CFU/mL (Candida albicans; 4 × MIC, 2 h): 3.90 Log10 CFU/mL
- Viable counts in Log10 CFU/mL (Candida albicans; 4 × MIC, 4 h): <2.70 Log10 CFU/mL
- Viable counts in Log10 CFU/mL (Candida albicans; 4 × MIC, 6 h): <2.70 Log10 CFU/mL
- Viable counts in Log10 CFU/mL (Candida albicans; 4 × MIC, 24 h): <1 Log10 CFU/mL
- Viable counts in Log10 CFU/mL (Candida albicans; 4 × MIC, 0 h): 5.79 Log10 CFU/mL
- Viable counts, Pseudomonas aeruginosa time kill study (Pseudomonas aeruginosa; 1 × MIC, 1 h): <1 Log10 CFU/mL
- Viable counts, Pseudomonas aeruginosa time kill study (Pseudomonas aeruginosa; 1 × MIC, 2 h): <1 Log10 CFU/mL
- Viable counts, Pseudomonas aeruginosa time kill study (Pseudomonas aeruginosa; 1 × MIC, 4 h): <1 Log10 CFU/mL
- Viable counts, Pseudomonas aeruginosa time kill study (Pseudomonas aeruginosa; 1 × MIC, 6 h): <1 Log10 CFU/mL
- Viable counts, Pseudomonas aeruginosa time kill study (Pseudomonas aeruginosa; 1 × MIC, 24 h): <1 Log10 CFU/mL
- Viable counts, Pseudomonas aeruginosa time kill study (Pseudomonas aeruginosa; 1×MIC, time 0): 5.30 Log10 CFU/mL
- Viable counts, Pseudomonas aeruginosa time kill study (Pseudomonas aeruginosa; 2 × MIC, 1 h): <1 Log10 CFU/mL
- Viable counts, Pseudomonas aeruginosa time kill study (Pseudomonas aeruginosa; 2 × MIC, 2 h): <1 Log10 CFU/mL
- Viable counts, Pseudomonas aeruginosa time kill study (Pseudomonas aeruginosa; 2 × MIC, 4 h): <1 Log10 CFU/mL
- Viable counts, Pseudomonas aeruginosa time kill study (Pseudomonas aeruginosa; 2 × MIC, 6 h): <1 Log10 CFU/mL
- Viable counts, Pseudomonas aeruginosa time kill study (Pseudomonas aeruginosa; 2 × MIC, 24 h): <1 Log10 CFU/mL
- Viable counts, Pseudomonas aeruginosa time kill study (Pseudomonas aeruginosa; 2 × MIC, time 0): 5.22 Log10 CFU/mL
- Viable counts, Pseudomonas aeruginosa time kill study (Pseudomonas aeruginosa; 4 × MIC, 1 h): <1 Log10 CFU/mL
- Viable counts, Pseudomonas aeruginosa time kill study (Pseudomonas aeruginosa; 4 × MIC, 2 h): <1 Log10 CFU/mL
- Viable counts, Pseudomonas aeruginosa time kill study (Pseudomonas aeruginosa; 4 × MIC, 4 h): <1 Log10 CFU/mL
- Viable counts, Pseudomonas aeruginosa time kill study (Pseudomonas aeruginosa; 4 × MIC, 6 h): <1 Log10 CFU/mL
- Viable counts, Pseudomonas aeruginosa time kill study (Pseudomonas aeruginosa; 4 × MIC, 24 h): <1 Log10 CFU/mL
- Viable counts, Pseudomonas aeruginosa time kill study (Pseudomonas aeruginosa; 4 × MIC, time 0): 5.26 Log10 CFU/mL
- Viable counts, Staphylococcus aureus time kill study (Staphylococcus aureus; 1 × MIC, 1 h): <3 Log10 CFU/mL
- Viable counts, Staphylococcus aureus time kill study (Staphylococcus aureus; 1 × MIC, 2 h): <3 Log10 CFU/mL
- Viable counts, Staphylococcus aureus time kill study (Staphylococcus aureus; 1 × MIC, 4 h): <3 Log10 CFU/mL
- Viable counts, Staphylococcus aureus time kill study (Staphylococcus aureus; 1 × MIC, 6 h): <3 Log10 CFU/mL
- Viable counts, Staphylococcus aureus time kill study (Staphylococcus aureus; 1 × MIC, 24 h): <1 Log10 CFU/mL
- Viable counts, Staphylococcus aureus time kill study (Staphylococcus aureus; 1×MIC, time 0): 6.24 Log10 CFU/mL
- Viable counts, Staphylococcus aureus time kill study (Staphylococcus aureus; 2 × MIC, 1 h): <3 Log10 CFU/mL
- Viable counts, Staphylococcus aureus time kill study (Staphylococcus aureus; 2 × MIC, 2 h): <3 Log10 CFU/mL
- Viable counts, Staphylococcus aureus time kill study (Staphylococcus aureus; 2 × MIC, 4 h): <3 Log10 CFU/mL
- Viable counts, Staphylococcus aureus time kill study (Staphylococcus aureus; 2 × MIC, 6 h): <3 Log10 CFU/mL
- Viable counts, Staphylococcus aureus time kill study (Staphylococcus aureus; 2 × MIC, 24 h): <1 Log10 CFU/mL
- Viable counts, Staphylococcus aureus time kill study (Staphylococcus aureus; 2 × MIC, time 0): 6.25 Log10 CFU/mL
- Viable counts, Staphylococcus aureus time kill study (Staphylococcus aureus; 4 × MIC, 1 h): <3 Log10 CFU/mL
- Viable counts, Staphylococcus aureus time kill study (Staphylococcus aureus; 4 × MIC, 2 h): <3 Log10 CFU/mL
- Viable counts, Staphylococcus aureus time kill study (Staphylococcus aureus; 4 × MIC, 4 h): <3 Log10 CFU/mL
- Viable counts, Staphylococcus aureus time kill study (Staphylococcus aureus; 4 × MIC, 6 h): <3 Log10 CFU/mL
- Viable counts, Staphylococcus aureus time kill study (Staphylococcus aureus; 4 × MIC, 24 h): <1 Log10 CFU/mL
- Viable counts, Staphylococcus aureus time kill study (Staphylococcus aureus; 4 × MIC, time 0): 6.23 Log10 CFU/mL

— US20140357713A1, “ANTIMICROBIAL COMPOUNDS AND METHODS OF USE” (NexMed Holdings, Inc., priority 2012, published 2014)
